Source: US20260374767A1, “FUSED HETEROCYCLIC COMPOUNDS AND USES THEREOF” (Chengdu Zenitar Biomedical Technology Co., Ltd., priority 2022, published 2026)

Tests used:
[1] = tested on: DLD-1 cells; assay: Anti-proliferative activity assay, BRCA wild-type DLD-1 cells (CCK8); assay type: cell-based; details: Homo sapiens, 72 h + 96 h
From the text: (§1) 2. Anti-Proliferative Activity Assay of Cell:

[2] = tested on: MDA-MB-436 cells; assay: Anti-proliferative activity assay, BRCA-mutated MDA-MB-436 cells (CCK8); assay type: cell-based; details: Homo sapiens, MDA-MB-436, BRCA-mutated, 72 h + 96 h
From the text: as §1

[3] = target: PARP1 (Homo sapiens, UniProt P09874); assay: Determination of PARP1 Enzyme; assay type: biochemical; details: read-out: PARP-1 inhibition ratio
Experimental: 1.1 Determination of PARP1 Enzyme
1.1.1 Preparation of buffer solution: PBST: 1× PBS, 0.05% Tween-20; blocking solution: 1× PBS, 0.05% Tween-20, 5% BSA; reaction buffer: 50 mM Tris-HCl (pH 7.5), 0.005% Tween-20, 0.01% BSA.
1.1.2 Coating: A 50 ng/mL Histone coating solution was prepared by using 1× PBS, 25 μL of the coating solution was transferred to a 384-well reaction plate, and the reaction plate was coated overnight at 4 °C.
1.1.3 Washing: After the coating was completed, the coating solution was discarded, and the reaction plate was washed with the PBST solution by means of transferring 50 μL of the PBST to the 384-well reaction plate, letting it stand for 5 min, discarding the washing solution, refilling the reaction plate, and repeating the washing process 3 times. Finally, the reaction plate was tapped dry and the next step of blocking was proceeded with.
1.1.4 Blocking: 50 μL of the blocking solution was transferred to the 384-well reaction plate and set for 1 h.
Washing: After the blocking was completed, the blocking solution was discarded, the reaction plate was washed 3 times with the PBST solution according to the method in Step 2, and the reaction plate was tapped dry.
1.1.5 A 1,000× compound was prepared, 1 μL of the compound was transferred to a 96-well plate containing 199 μL of the reaction buffer, mixed well, and then 5 µL of the mixed compound was transferred to the 384-well reaction plate.
1.1.6 A 25/10× PARP1-DNA solution was prepared by using the reaction buffer, 10 μL of the PARP1-DNA solution was transferred to the 384-well reaction plate. For a negative control well, 10 μL of the DNA solution was transferred and the final concentration of PARP1 was 0.02 nM and that of DNA was 0.8 nM.
1.1.9 Washing: After the reaction was completed, the reaction liquid was discarded. The reaction plate was washed 3 times with the PBST solution according to the method in Step 2, and the reaction plate was tapped dry.
1.1.11 Washing: The anti-Poly/Mono-ADP Ribose Rabbit was discarded, the reaction plate was washed 3 times with the PBST solution according to the method in Step 2, and the reaction plate was tapped dry.
1.1.12 A 2,000× anti-rabbit IgG, HRP-linked Antibody was diluted with the blocking solution, 20 μL of the diluted anti-rabbit IgG, HRP-linked Antibody was added, and incubated at room temperature for 1 h.
1.1.13 Washing: The anti-rabbit IgG, HRP-linked Antibody was discarded, the reaction plate was washed 3 times with the PBST solution according to the method in Step 2, and the reaction plate was tapped dry.
1.1.14 Color developing: Femto-ECL Substrate A and Femto-ECL Substrate B were mixed in a 1:1 ratio, and 25 μL of the mixture was transferred to the 384-well reaction plate.
1.1.15 Reading: A relative light unit (RLU) was read with Envision.

[4] = tested on: breast cancer MDA-MB-436; assay: In-vivo pharmacodynamic study on subcutaneous xenograft tumor model of breast cancer MDA-MB-436; parameters: species or system human tumor cells in NOD/SCID mice; details: for inhibitory effects on tumor growth compared to blank control group: all dose groups
Experimental: Strain: NOD/SCID; Grade: SPF; Source: Beijing Vitron River Bio-technology Co., Ltd.
The cells were washed 3 times with pre-cooled PBS, centrifuged at 300 g for 10 min, collected, re-suspended in PBS, and counted with a blood cell counting chamber, and the cell concentration was adjusted. After cell collection, the cell suspension was pre-cooled on ice. 100 μL of the cell suspension was administered via subcutaneous injection into the dorsal flank of the mice, and the grouped treatment was started when the tumor volume reached 200-300 mm^3.
Animal assay: all viable experimental animals scheduled for assay; Assay time: All animals were weighed before the modeling for test grouping. After modeling, the mice were weighed once every 2 days, and the weight change of the mice was recorded in real time. Effective criteria: tumor volume (TV), relative tumor volume (RTV) and relative tumor growth rate of subcutaneously implanted tumor model. […] The calculation formula of tumor volume (TV) was: TV (mm^3)=a×b2×0.5, where a and b were the long diameter and short diameter, respectively.
The evaluation index for anti-tumor activity was the relative tumor growth rate T/C (%), and the calculation formula was as follows: […]
Where, TRTV is relative tumor volume of the treatment group; CRTV is relative tumor volume of the negative control group. […] The tumor inhibition rate (%) was calculated by the formula below: […]
All raw data within the facility were collected manually according to the experimental scheme and the relevant guidelines of the research institution, or gathered by using a data acquisition system. Manually collected data can be transcribed into software such as Excel for analysis and reporting. The data from each group were quantitative, and the experimental data for each group of animals in the tables were expressed as mean±standard deviation (Mean±SD). In the figures, the experimental data ware described as mean±standard error of the mean (Mean±SEM). Statistical analysis, including t-tests and survival analysis, was performed by using the software such as EXCEL and GraphPad Prism.
After 24 days of administration, the tumor-bearing mice were anesthetized and euthanized. The tumor tissues were dissected, weighed, and photographed, and the tumor inhibition rate was calculated.

[5] = Body weight in MDA-MB-436 xenograft study; assay type: in vivo, NOD/SCID mice; details: for Body weight X ± SD, End: 24 days
Experimental: Animal assay: all viable experimental animals scheduled for assay; Assay time: All animals were weighed before the modeling for test grouping. After modeling, the mice were weighed once every 2 days, and the weight change of the mice was recorded in real time. Effective criteria: tumor volume (TV), relative tumor volume (RTV) and relative tumor growth rate of subcutaneously implanted tumor model. The long diameter and short diameter of the tumor was measured with vernier calipers every 2 days, and the anti-tumor effects of the tested drug was dynamically observed. The calculation formula of tumor volume (TV) was: TV (mm^3)=a×b2×0.5, where a and b were the long diameter and short diameter, respectively.
Each group consisted of 6 mice, all of which are administered orally once daily. […] After 24 days of administration, the tumor-bearing mice were anesthetized and euthanized. The tumor tissues were dissected, weighed, and photographed, and the tumor inhibition rate was calculated.

[6] = tested on: breast cancer MDA-MB-436; assay: Challenge experiment on subcutaneous xenograft tumor model of breast cancer MDA-MB-436 (large-volume tumors); details: 1 mg/kg orally once per day
[7] = Pharmacokinetic evaluation in Balb/c mice; assay type: in vivo; details: mouse, plasma, 1 mg/kg, PO
[8] = 0.1 mg/kg orally once daily, 24 days

PARP1, sequence (P09874 whole entry): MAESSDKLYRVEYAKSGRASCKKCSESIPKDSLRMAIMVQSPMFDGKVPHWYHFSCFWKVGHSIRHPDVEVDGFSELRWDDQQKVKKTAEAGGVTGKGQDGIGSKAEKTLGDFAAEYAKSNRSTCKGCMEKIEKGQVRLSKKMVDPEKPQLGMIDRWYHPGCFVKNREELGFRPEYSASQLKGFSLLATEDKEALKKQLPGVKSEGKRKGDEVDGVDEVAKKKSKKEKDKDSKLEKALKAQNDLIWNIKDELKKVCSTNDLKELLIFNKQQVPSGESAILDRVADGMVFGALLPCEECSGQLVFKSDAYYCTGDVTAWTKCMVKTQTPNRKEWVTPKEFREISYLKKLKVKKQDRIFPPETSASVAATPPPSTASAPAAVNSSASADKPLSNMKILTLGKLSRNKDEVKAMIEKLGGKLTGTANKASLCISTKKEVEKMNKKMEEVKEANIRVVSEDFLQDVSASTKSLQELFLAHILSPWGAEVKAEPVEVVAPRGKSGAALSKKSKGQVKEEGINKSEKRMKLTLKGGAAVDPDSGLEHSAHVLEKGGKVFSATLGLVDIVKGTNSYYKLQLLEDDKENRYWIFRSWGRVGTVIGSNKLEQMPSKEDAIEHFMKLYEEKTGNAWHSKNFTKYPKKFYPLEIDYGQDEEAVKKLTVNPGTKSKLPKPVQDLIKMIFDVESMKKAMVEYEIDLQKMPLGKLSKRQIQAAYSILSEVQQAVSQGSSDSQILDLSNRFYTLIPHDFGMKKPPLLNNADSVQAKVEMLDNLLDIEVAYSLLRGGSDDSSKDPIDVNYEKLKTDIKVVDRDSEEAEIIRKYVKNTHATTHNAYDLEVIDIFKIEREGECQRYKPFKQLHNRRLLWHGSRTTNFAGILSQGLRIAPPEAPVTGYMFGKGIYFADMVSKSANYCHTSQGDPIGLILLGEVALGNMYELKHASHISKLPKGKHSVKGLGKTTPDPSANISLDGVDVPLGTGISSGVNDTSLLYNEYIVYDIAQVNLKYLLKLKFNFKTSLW

Compound	IC50 [1] [nM]	IC50 [2] [nM]	inhibition at 0.01 µM [3] [%]	inhibition at 0.1 µM [3] [%]	inhibitory effects on tumor growth compared to blank control group ([4]; 24 days)	also measured
[2H]C(c1cnc2cc(CC)c(=O)[nH]c2c1)N1CC=C(c2ccc(C(=O)NC)nc2)CC1 (stereo not shown) [Compound 3]	> 10000	1				
[2H]C([2H])([2H])NC(=O)c1ccc(C2=CCN(Cc3cnc4cc(C([2H])([2H])C([2H])([2H])[2H])c(=O)[nH]c4c3)CC2)cn1 [Compound 11, 1′-((7-(ethyl-d5)-6-oxo-5,6-dihydro-1,5-naphthyridin-3-yl)methyl)-N-(methyl-d3)-1′,2′,3′,6′-tet rahydro-[3,4′-bipyridine]-6-carboxamide]	> 10000	0.8				
[2H]C([2H])([2H])C([2H])([2H])c1nc2ccc(CN3CC=C(c4ccc(C(=O)NC)nc4)CC3)c(F)c2[nH]c1=O [Compound 13, 1′-((2-(ethyl-d5)-5-fluoro-3-oxo-3,4-dihydroquinoxalin-6-yl)methyl)-N-methyl-1′,2′,3′,6′-tetra hydro-[3,4′-bipyridine]-6-carboxamide]			96.1	98.5		
O=C(c1cc(Cc2n[nH]c(=O)c3ccccc23)ccc1F)N1CCN(C(=O)C2CC2)CC1 [Olaparib, reference compound]					significant inhibitory effects on tumor growth	Body weight X ± SD, End ([5]; 100 mg/kg orally once daily): 21.7 ± 1.4 g; Body weight X ± SD, Start ([5]; 100 mg/kg orally once daily): 21.9 ± 1.1 g
[2H]C([2H])([2H])C([2H])([2H])c1nc2ccc(CN3CC=C(c4ccc(C(=O)NC)nc4F)CC3)c(F)c2[nH]c1=O [Compound 14, 1′-((2-(ethyl-d5)-5-fluoro-3-oxo-3,4-dihydroquinoxalin-6-yl)methyl)-2-fluoro-N-methyl-1′,2′,3′,6′-tetrahydro-[3,4′-bipyridine]-6-carboxamide]			98.9	99.1		
[2H]C([2H])([2H])Cc1cc2ncc(CN3CC=C(c4ccc(C(=O)NC)nc4)CC3)cc2[nH]c1=O [Compound 16, 1′-((7-(ethyl-2,2,2-d3)-6-oxo-5,6-dihydro-1,5-naphthyridin-3-yl)methyl)-N-methyl-1′,2′,3′,6′-t etrahydro-[3,4′-bipyridine]-6-carboxamide]	> 10000	0.7				
CCc1cc2ncc(CN3CC=C(c4ccc(C(=O)NC)nc4)CC3)cc2[nH]c1=O [Compound 1]	> 10000	0.9			significant inhibitory effects on tumor growth	Tumor inhibition rate [4, 8]: 82.18%; Tumor weight X ± SD [4, 8]: 0.39 ± 0.28 g; Tumor volume X ± SD, End ([4]; 0.1 mg/kg orally once daily, end, 24 days): 304.9 ± 141.7 mm^3; Tumor volume X ± SD, Start ([4]; 0.1 mg/kg orally once daily, start): 271.4 ± 76.6 mm^3; tumor regression in large-volume tumors [6]: complete regression of tumors; CL/F [7]: 0.167 mL/min/kg; Body weight X ± SD, End ([5]; 0.1 mg/kg orally once daily): 21.6 ± 1.1 g; Body weight X ± SD, Start ([5]; 0.1 mg/kg orally once daily): 21.6 ± 0.3 g
[2H]C([2H])([2H])NC(=O)c1ccc(C2=CCN(Cc3cnc4cc(CC)c(=O)[nH]c4c3)CC2)cn1 [Compound 2]	> 10000	1.1				
[2H]C([2H])([2H])C([2H])([2H])c1cc2ncc(CN3CC=C(c4ccc(C(=O)NC5CC5)nc4)CC3)cc2[nH]c1=O [Compound 12, N-cyclopropyl-1′-((7-(ethyl-d5)-6-oxo-5,6-dihydro-1,5-naphthyridin-3-yl)methyl)-1′,2′,3′,6′-tet rahydro-[3,4′-bipyridine]-6-carboxamide]			99.8	99.9		
CCc1cc2ncc(CN3CCN(c4ccc(C(=O)NC)nc4)CC3)cc2[nH]c1=O [AZD5305, reference compound]					significant inhibitory effects on tumor growth	Body weight X ± SD, End ([5]; 0.1 mg/kg orally once daily): 21.8 ± 1.0 g; Body weight X ± SD, Start ([5]; 0.1 mg/kg orally once daily): 21.9 ± 0.7 g
